Laboratory results published in patent US20100203043A1, “TREATMENT AND DIAGNOSIS OF METASTATIC PROSTATE CANCER WITH INHIBITORS OF EPIDERMAL GROWTH FACTOR RECEPTOR (EGFR)” (priority 2007, published 2010).

Test system: LNCaP cells
Assay: Kinase activity profiling (PamChip peptide arrays) of LNCaP cells treated with synthetic androgen analog
Assay type: cell-based, human
Set-up: key to ZAP70_y492/y493 phosphopeptide fold change (log2) relative to LNCaP baseline / RASA_y460 phosphopeptide fold change (log2) relative to LNCaP baseline / RET_y1029 phosphopeptide fold change (log2) relative to LNCaP baseline / IRS2_y919 phosphopeptide fold change (log2) relative to LNCaP baseline / JAK1_y1022/y1023 phosphopeptide fold change (log2) relative to LNCaP baseline / LCK_y394 phosphopeptide fold change (log2) relative to LNCaP baseline / MET_y1230/y1234/y1235 phosphopeptide fold change (log2) relative to LNCaP baseline / PDPK1_y9 phosphopeptide fold change (log2) relative to LNCaP baseline / PDPK1_y373/y376 phosphopeptide fold change (log2) relative to LNCaP baseline / EPHB1_y778 phosphopeptide fold change (log2) relative to LNCaP baseline / ERBB2_y877 phosphopeptide fold change (log2) relative to LNCaP baseline / ERBB2_y1248 phosphopeptide fold change (log2) relative to LNCaP baseline / CDK2_t14/y_5 phosphopeptide fold change (log2) relative to LNCaP baseline / DDRl_y792/y796/y797 phosphopeptide fold change (log2) relative to LNCaP baseline / MAPK10 phosphopeptide fold change (log2) relative to LNCaP baseline / MAPK12_t183/y185 phosphopeptide fold change (log2) relative to LNCaP baseline / PECAM1_y713 phosphopeptide fold change (log2) relative to LNCaP baseline / PRRX2_y214 phosphopeptide fold change (log2) relative to LNCaP baseline / ANXA1_y20/t23 phosphopeptide fold change (log2) relative to LNCaP baseline / CD79A_y182/y188 phosphopeptide fold change (log2) relative to LNCaP baseline / CTTN1_y477/y483 phosphopeptide fold change (log2) relative to LNCaP baseline / CTTN1_y499 phosphopeptide fold change (log2) relative to LNCaP baseline / ENO2_y43 phosphopeptide fold change (log2) relative to LNCaP baseline / EPHA2_y772 phosphopeptide fold change (log2) relative to LNCaP baseline / EPHA7_y608/y614 phosphopeptide fold change (log2) relative to LNCaP baseline / EPOR_y368 phosphopeptide fold change (log2) relative to LNCaP baseline / EPOR_y426 phosphopeptide fold change (log2) relative to LNCaP baseline / FER_y714 phosphopeptide fold change (log2) relative to LNCaP baseline / FES_y713 phosphopeptide fold change (log2) relative to LNCaP baseline / FGFR2_y769 phosphopeptide fold change (log2) relative to LNCaP baseline / FGFR3_y760 phosphopeptide fold change (log2) relative to LNCaP baseline / FRK_y387 phosphopeptide fold change (log2) relative to LNCaP baseline / LAT_y255 phosphopeptide fold change (log2) relative to LNCaP baseline / EGFR_y1110 phosphopeptide fold change (log2) relative to LNCaP baseline / NTRK2_y702/y706/y707 phosphopeptide fold change (log2) relative to LNCaP baseline / PDGFRB_y579/y581 phosphopeptide fold change (log2) relative to LNCaP baseline / PDGFRB_y716 phosphopeptide fold change (log2) relative to LNCaP baseline / PIK3R1_y607/s608 phosphopeptide fold change (log2) relative to LNCaP baseline / PXN_y31 phosphopeptide fold change (log2) relative to LNCaP baseline / PXN_y118 phosphopeptide fold change (log2) relative to LNCaP baseline / TEC_y519 phosphopeptide fold change (log2) relative to LNCaP baseline / MST1R_y1353 phosphopeptide fold change (log2) relative to LNCaP baseline / MST1R_y1356/y1360 phosphopeptide fold change (log2) relative to LNCaP baseline / FAK_y576/y577 phosphopeptide fold change (log2) relative to LNCaP baseline / FAK2_y579/y580 phosphopeptide fold change (log2) relative to LNCaP baseline / LAT_y200 phosphopeptide fold change (log2) relative to LNCaP baseline: —: ‘-’ denotes that the change in peptide phosphorylation level was not found to be significant
Settings: ‘androgenic’: LNCaP cells, 100 nM R1881, 48 h
Protocol: Cell culture conditions. The LNCaP and OHS cell lines were routinely held in RPMI 1640 medium supplemented with 10% fetal bovine serum (FBS) and 2.0 mM glutamine, defined as growth medium. Different ratios of LNCaP cells to OHS cells had been tested in a series of cocultures to find the optimal culturing conditions [Bratland et al., 2003]. Seventy-two hours before start of experimental incubations, LNCaP and OHS cells were seeded in a 10:1 ratio in RPMI containing 2% charcoal-treated FBS and glutamine. After 48 h, this medium was changed to RPMI containing 0.5% charcoal-treated FBS and glutamine, defined as experimental medium, for another 24 h before experimental incubations were started (at time 0). Monocultures of LNCaP cells were identically incubated prior to experimental incubations.
Monocultures of LNCaP, as well as LNCaP/OHS cocultures, were seeded in a total number of 1.0×10^6 cells in 75 cm2 cell flasks and invariably held in 10 ml medium throughout different incubations. At time 0 (start of the experimental incubations), monocultured LNCaP cells were refed with experimental medium supplemented with 100 nM R1881 (methyltrienolone; Life Science Products), a synthetic androgen analog, or with medium conditioned by OHS cells. The conditioned medium had been collected from OHS monocultures that had been seeded in a 10-fold higher number per volume medium compared to the corresponding cell number of the LNCaP/OHS cocultures, and grown for 48 h (relative to time 0) in experimental medium. This medium was subsequently diluted 1:10 in either fresh experimental medium or in medium obtained from standard LNCaP monocultures after 48 h of incubation (relative to time 0) in experimental medium, before the application onto monocultured LNCaP cells.
To be able to analyze LNCaP signaling pathways activated by direct contact with OHS cells, LNCaP cells were isolated from cocultures by immunomagnetic selection [Forus et al., 1999, Fodstad et al., 2001, Bruland et al., 2005, Tveito et al., 2007]. This rapid and simple procedure enables specific selection of target cells for further analytical applications. Subsequent multiplex profiling of kinase activity was performed using flow-through, porous microarrays with peptide substrates (PamChip® peptide arrays; PamGene International B.V., www.pamgene.com), a novel platform that allows rapid, real-time measurements of phosphopeptide signatures generated by the biological samples.
Androgens are critical regulators of prostate carcinoma progression. Most patients respond to androgen ablation therapy, but only temporarily, also at bone metastasis sites. Until recently, the regulatory program mediated by the androgen receptor in prostate cancer has been elusive [Dehm & Tindall, 2006]. To simulate the complex processes involved in aberrant activation of the androgen signaling axis upon disease progression of prostate cancer [Feldman & Feldman, 2001, Attard et al., 2006], our experimental setting included LNCaP cells treated with a synthetic androgen analog (R1881, 100 nM) to observe whether androgen receptor-mediated signaling pathways might be different from those activated by OHS-directed influence.
The LNCaP samples were given denotations in accordance with their biological context: ‘direct’ (cells from LNCaP/OHS cocultures), ‘paracrine 1’ (cells treated with OHS-conditioned medium mixed with fresh medium), ‘paracrine 2’ (cells treated with OHS-conditioned medium mixed with medium conditioned by LNCaP cells), and ‘androgenic’ (cells treated with the synthetic androgen analog), in addition to baseline (untreated reference cells).
To identify regulatory mechanisms underlying the affinity of prostate cancer to bone, the substrate phosphorylation state generated by each LNCaP entity (‘direct’, ‘paracrine’, ‘androgenic’) was calculated with respect to baseline. […]

C[C@]1(O)CC[C@H]2[C@@H]3CCC4=CC(=O)CCC4=C3C=C[C@@]21C [R1881, methyltrienolone]
1.94 fold change (log2): EGFR_y1197 phosphopeptide fold change (log2) relative to LNCaP baseline
3.31 fold change (log2): ERBB4_y1284 phosphopeptide fold change (log2) relative to LNCaP baseline
—: ANXA1_y20/t23 phosphopeptide fold change (log2) relative to LNCaP baseline | CD79A_y182/y188 phosphopeptide fold change (log2) relative to LNCaP baseline | CDK2_t14/y_5 phosphopeptide fold change (log2) relative to LNCaP baseline | CTTN1_y477/y483 phosphopeptide fold change (log2) relative to LNCaP baseline | CTTN1_y499 phosphopeptide fold change (log2) relative to LNCaP baseline | DDRl_y792/y796/y797 phosphopeptide fold change (log2) relative to LNCaP baseline | EGFR_y1110 phosphopeptide fold change (log2) relative to LNCaP baseline | ENO2_y43 phosphopeptide fold change (log2) relative to LNCaP baseline | EPHA2_y772 phosphopeptide fold change (log2) relative to LNCaP baseline | EPHA7_y608/y614 phosphopeptide fold change (log2) relative to LNCaP baseline | EPHB1_y778 phosphopeptide fold change (log2) relative to LNCaP baseline | EPOR_y368 phosphopeptide fold change (log2) relative to LNCaP baseline | EPOR_y426 phosphopeptide fold change (log2) relative to LNCaP baseline | ERBB2_y877 phosphopeptide fold change (log2) relative to LNCaP baseline | ERBB2_y1248 phosphopeptide fold change (log2) relative to LNCaP baseline | FAK2_y579/y580 phosphopeptide fold change (log2) relative to LNCaP baseline | FAK_y576/y577 phosphopeptide fold change (log2) relative to LNCaP baseline | FER_y714 phosphopeptide fold change (log2) relative to LNCaP baseline | FES_y713 phosphopeptide fold change (log2) relative to LNCaP baseline | FGFR2_y769 phosphopeptide fold change (log2) relative to LNCaP baseline | FGFR3_y760 phosphopeptide fold change (log2) relative to LNCaP baseline | FRK_y387 phosphopeptide fold change (log2) relative to LNCaP baseline | IRS2_y919 phosphopeptide fold change (log2) relative to LNCaP baseline | JAK1_y1022/y1023 phosphopeptide fold change (log2) relative to LNCaP baseline | LAT_y200 phosphopeptide fold change (log2) relative to LNCaP baseline | LAT_y255 phosphopeptide fold change (log2) relative to LNCaP baseline | LCK_y394 phosphopeptide fold change (log2) relative to LNCaP baseline | MAPK10 phosphopeptide fold change (log2) relative to LNCaP baseline | MAPK12_t183/y185 phosphopeptide fold change (log2) relative to LNCaP baseline | MET_y1230/y1234/y1235 phosphopeptide fold change (log2) relative to LNCaP baseline | MST1R_y1353 phosphopeptide fold change (log2) relative to LNCaP baseline | MST1R_y1356/y1360 phosphopeptide fold change (log2) relative to LNCaP baseline | NTRK2_y702/y706/y707 phosphopeptide fold change (log2) relative to LNCaP baseline | PDGFRB_y579/y581 phosphopeptide fold change (log2) relative to LNCaP baseline | PDGFRB_y716 phosphopeptide fold change (log2) relative to LNCaP baseline | PDPK1_y9 phosphopeptide fold change (log2) relative to LNCaP baseline | PDPK1_y373/y376 phosphopeptide fold change (log2) relative to LNCaP baseline | PECAM1_y713 phosphopeptide fold change (log2) relative to LNCaP baseline | PIK3R1_y607/s608 phosphopeptide fold change (log2) relative to LNCaP baseline | PRRX2_y214 phosphopeptide fold change (log2) relative to LNCaP baseline | PXN_y31 phosphopeptide fold change (log2) relative to LNCaP baseline | PXN_y118 phosphopeptide fold change (log2) relative to LNCaP baseline | RASA_y460 phosphopeptide fold change (log2) relative to LNCaP baseline | RET_y1029 phosphopeptide fold change (log2) relative to LNCaP baseline | TEC_y519 phosphopeptide fold change (log2) relative to LNCaP baseline | ZAP70_y492/y493 phosphopeptide fold change (log2) relative to LNCaP baseline
1.20 fold change (log2): LTK_y772/y776/y777 phosphopeptide fold change (log2) relative to LNCaP baseline | SYN1_s9 phosphopeptide fold change (log2) relative to LNCaP baseline
1.15 fold change (log2): GSK3B_y216 phosphopeptide fold change (log2) relative to LNCaP baseline
3.07 fold change (log2): RB1_s807/s811 phosphopeptide fold change (log2) relative to LNCaP baseline
1.36 fold change (log2): PFKFB1_s33 phosphopeptide fold change (log2) relative to LNCaP baseline
1.14 fold change (log2): RAF1_s337/s338/y339/y340 phosphopeptide fold change (log2) relative to LNCaP baseline
2.94 fold change (log2): PTPN11_y542 phosphopeptide fold change (log2) relative to LNCaP baseline
1.57 fold change (log2): CHRNB1_y390 phosphopeptide fold change (log2) relative to LNCaP baseline
1.47 fold change (log2): CREBl_y134/s133 phosphopeptide fold change (log2) relative to LNCaP baseline
